The values below come from ChEMBL document CHEMBL3745668, “Synthesis and biological evaluation of novel 5-hydroxylaminoisoxazole derivatives as lipoxygenase inhibitors and metabolism enhancing agents” (Bioorg Med Chem, 2016).

The IC50 is the concentration needed to halve the response being measured. What is called EC50 is the concentration giving half of the maximal effect.

SMILES strings stand for the structures. Calls of active or inactive are those of the source. The rule behind the calls is not given here. Some results are limits rather than exact numbers.

Data set [1] is described as follows: Cytotoxicity against albino rat primary cerebellar granule neurons assessed as reduction in cell viability at 30 uM after 24 hrs by MTT assay. Conditions: primary cerebellar granule neuron.
Data set [2] is filed under the species Rattus norvegicus. Description: Increase in oxygen consumption rate of mitochondrial resting respiration in albino rat liver mitochondria at 10 uM by XF96 extracellular flux analysis in presence of oligomycin. The format is functional.
In data set [3] the target is T1, Seed linoleate 13S-lipoxygenase-1 (Glycine max, UniProt P08170).
T1 sequence (P08170 whole entry): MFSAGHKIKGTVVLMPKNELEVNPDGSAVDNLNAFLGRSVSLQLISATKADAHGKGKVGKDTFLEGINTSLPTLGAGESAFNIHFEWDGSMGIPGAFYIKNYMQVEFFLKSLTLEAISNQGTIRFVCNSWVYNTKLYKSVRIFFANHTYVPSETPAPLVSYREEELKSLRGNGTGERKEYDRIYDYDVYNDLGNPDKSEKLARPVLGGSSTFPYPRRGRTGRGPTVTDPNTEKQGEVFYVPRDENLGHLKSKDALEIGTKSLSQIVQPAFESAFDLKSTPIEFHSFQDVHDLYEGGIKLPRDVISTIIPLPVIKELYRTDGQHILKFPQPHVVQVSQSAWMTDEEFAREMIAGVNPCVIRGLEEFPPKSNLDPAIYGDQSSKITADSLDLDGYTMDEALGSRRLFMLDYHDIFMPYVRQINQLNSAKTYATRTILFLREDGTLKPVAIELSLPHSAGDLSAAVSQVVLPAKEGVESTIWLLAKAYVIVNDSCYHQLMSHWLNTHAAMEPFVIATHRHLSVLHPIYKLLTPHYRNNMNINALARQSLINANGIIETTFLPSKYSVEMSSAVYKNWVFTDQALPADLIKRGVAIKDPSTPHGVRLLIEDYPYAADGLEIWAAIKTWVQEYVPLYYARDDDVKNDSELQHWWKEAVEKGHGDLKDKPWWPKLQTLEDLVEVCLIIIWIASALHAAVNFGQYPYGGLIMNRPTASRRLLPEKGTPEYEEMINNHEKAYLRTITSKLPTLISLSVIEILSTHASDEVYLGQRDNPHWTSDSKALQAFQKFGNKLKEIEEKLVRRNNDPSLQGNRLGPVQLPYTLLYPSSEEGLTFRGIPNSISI
Description: Inhibition of soybean LOX1 assessed as reduction in linoleic acid oxidation measured every 10 s for 10 mins by spectrophotometry analysis.

The test system of data set [4] is Brain. Description: Antioxidant activity in albino rat brain homogenate assessed as inhibition of Fe(II)-induced lipid peroxidation after 60 mins by TBARS assay. Format: functional, tissue-based.
For data set [5], the system named is Brain. Description: Antioxidant activity in albino rat brain homogenate assessed as inhibition of Fe(III)-induced lipid peroxidation after 60 mins by TBARS assay. The format is functional, tissue-based. Conditions: 1 h.
The species entered for data set [6] is Rattus norvegicus. Description: Increase in FCCP-stimulated oxygen consumption rate of mitochondrial coupled state respiration in albino rat liver mitochondria at 10 uM by XF96 extracellular flux analysis. Format: functional.
Data set [7] can be described thus: Antioxidant activity assessed as DPPH radical scavenging activity after 30 mins by spectrophotometry analysis. Format: physicochemical. A general note: The DPPH test is a chemical assay of radical scavenging.
For data set [8], the species on record is Rattus norvegicus. Description: Increase in oxygen consumption rate of mitochondrial coupled state respiration in albino rat liver mitochondria using succinate as substrate at 10 uM by XF96 extracellular flux analysis in presence of rotenone. Format: functional.
For data set [9], the species on record is Rattus norvegicus. Description: Effect on calcium-induced depolarization of albino rat liver mitochondria using succinate as substrate by safranine A staining based assay in presence of rotenone or glutamate/malate. The format is functional.
The species named for data set [10] is Rattus norvegicus. Description: Effect on mitochondrial membrane potential in albino rat liver mitochondria using succinate as substrate by safranine A staining based assay in presence of rotenone or glutamate/malate. The format is functional.
For a further data set, the system named is SH-SY5Y. Description: Cytotoxicity against human SH-SY5Y cells assessed as reduction in cell viability at 30 uM after 24 hrs by MTT assay relative to control. The format is cell-based. A general note: Tetrazolium dyes change colour on reduction, which living cells bring about.
The target of data set [11] is T2, Seed linoleate 13S-lipoxygenase-1 (Glycine max) (UniProt P08170).
T2 sequence (whole entry): T1 sequence (P08170 whole entry)
Description: Inhibition of soybean LOX1 assessed as reduction in linoleic acid oxidation at 50 uM measured every 10 s for 10 mins by spectrophotometry analysis.

Data set [12] is described as follows: Cytotoxicity against albino rat primary cerebellar granule neurons assessed as reduction in cell viability at 30 uM after 24 hrs by MTT assay relative to control. Conditions: primary cerebellar granule neuron.
The nature of data set [13]: Antioxidant activity assessed as DPPH radical scavenging activity after 20 mins. Format: physicochemical.
The subject of data set [14] is Brain. Description: Antioxidant activity in Wstar rat brain homogenate assessed as inhibition of Fe(II)-induced TBARS formation incubated for 15 mins by spectrophotometry analysis. The format is functional, tissue-based. Conditions: 0.25 h.
[15] abbreviates: Rattus norvegicus, Brain, 1 h, read-out: IC50.

On to `CC(C)OC(=O)C12CC3CC(CC(OC(=O)c4cc(N(O)C5CCCO5)on4)(C3)C1)C2` (stereo not given), for which the Activity entry in data set [1] was “Non-toxic”. Further, the result in the data set filed under Rattus norvegicus [2], in the data set filed under Rattus norvegicus [9] and in the data set filed under Rattus norvegicus [10] was inactive. Moreover, the IC50 in [3] (read-out: IC50) stood at 277 µM; with Brain [4] (setting [15]), 2.74 µM; with Brain [5] it was 1.58 µM. The outcome in the data set filed under Rattus norvegicus [6] and in the data set filed under Rattus norvegicus [8] was Active. In [7], the EC50 is over 100 µM.
Take `O=C(OCC12CC3CC(CC(C3)C1)C2)c1cc(N(O)C2CCCO2)on1` (stereo not given): the figures for the Activity result (in data set [1]; in the data set with SH-SY5Y) were “Non-toxic” and 22%, respectively. Moreover, the result in the data set listed under Rattus norvegicus [2], in the data set filed under Rattus norvegicus [9] and in the data set filed under Rattus norvegicus [10] was inactive. The IC50 in data set [3] (read-out: IC50) was 16 µM; in the data set with Brain [4] (setting [15]), 6.58 µM; with Brain [5], 22 µM. The outcome in the data set listed under Rattus norvegicus [6] and in the data set filed under Rattus norvegicus [8] was Active. For the same compound, the EC50 in data set [7] stood at 70 µM.
For the compound `O=C(OCc1ccc(C23CC4CC(CC(C4)C2)C3)cc1)c1cc(N(O)C2CCCO2)on1` (stereo not given), the Activity result in data set [1] is given as “Non-toxic”. The result in the data set listed under Rattus norvegicus [2], in the data set listed under Rattus norvegicus [9] and in the data set listed under Rattus norvegicus [10] was inactive. Further, the IC50 entry in data set [3] is “Not Active”; with Brain [4] (setting [15]), 3.41 µM; with Brain [5] it was 5.45 µM. In addition, the outcome in the data set filed under Rattus norvegicus [6] and in the data set listed under Rattus norvegicus [8] was Active. In addition, the EC50 in [7] is over 100 µM.
As to `CC12CC3CC(C)(C1)CC(OC(=O)c1cc(N(O)C4CCCO4)on1)(C3)C2` (stereo not given), the Activity result in data set [1] was “Non-toxic”. For the same compound, the inhibition entry in [11] is “Active”. The outcome in the data set listed under Rattus norvegicus [2], in the data set filed under Rattus norvegicus [9] and in the data set listed under Rattus norvegicus [10] was inactive. For the same compound, the IC50 worked out at 1 µM in [3] (read-out: IC50), 5.16 µM with Brain [4] (setting [15]) and 1.48 µM with Brain [5]. Further, the result in the data set listed under Rattus norvegicus [6] and in the data set listed under Rattus norvegicus [8] was Active. The half-maximal effective concentration (EC50) in data set [7] came out at 38 µM.
With `O=C(OCCC12CC3CC(CC(C3)C1)C2)c1cc(N(O)C2CCCO2)on1` (stereo not given), the result in the data set listed under Rattus norvegicus [2], in the data set filed under Rattus norvegicus [9] and in the data set listed under Rattus norvegicus [10] was inactive. The results for the IC50 (in [3] (read-out: IC50); in the data set on Brain [4] (setting [15]); in the data set with Brain [5]) were 0.4 µM, 3.15 µM and 5.25 µM, respectively. Moreover, in data set [12], the Activity is recorded as 77%. Moreover, the outcome in the data set filed under Rattus norvegicus [6] and in the data set listed under Rattus norvegicus [8] was Active. Moreover, the EC50 in data set [7] came out at 21 µM.
Consider `C[C@H](c1cc2ccccc2s1)N(O)C(N)=O`, for which the results for the IC50 (in data set [13]; in the data set on Brain [14]) were 43 µM and over 50 µM, respectively. For the same compound, the EC50 in data set [7] was 14 µM.
On to `O=C(OCCOC12CC3CC(CC(C3)C1)C2)c1cc(N(O)C2CCCO2)on1` (stereo not given), for which the Activity entry in data set [1] is “Non-toxic”. Further, the result in the data set listed under Rattus norvegicus [2], in the data set listed under Rattus norvegicus [9] and in the data set listed under Rattus norvegicus [10] was inactive. In addition, the IC50 result was “Not Active” in [3], “Not Active” with Brain [4] and 35 µM in the data set on Brain [5]. Further, the outcome in the data set filed under Rattus norvegicus [6] and in the data set listed under Rattus norvegicus [8] was Active. Besides, the EC50 in [7] is over 100 µM.
Turning to `O=C(OC1C2CC3CC(C2)CC1C3)c1cc(N(O)C2CCCO2)on1` (stereo not given), the concentration for half-maximal inhibition (IC50) worked out at 4 µM in data set [3] (read-out: IC50), 10.5 µM in the data set with Brain [4] (setting [15]) and 1.21 µM in the data set with Brain [5]. Moreover, in data set [7], the EC50 was found to be 71 µM. The outcome in the data set filed under Rattus norvegicus [9] and in the data set listed under Rattus norvegicus [10] was inactive.
For `O=C(OC12CC3CC(CC(C3)C1)C2)c1cc(N(O)C2CCCO2)on1` (stereo not given), the outcome in the data set filed under Rattus norvegicus [2], in the data set listed under Rattus norvegicus [9] and in the data set listed under Rattus norvegicus [10] was inactive. Also, the figures for the IC50 (in [3] (read-out: IC50); in the data set with Brain [4] (setting [15]); in the data set on Brain [5]) were 25 µM, 0.33 µM and 1.37 µM, respectively. Besides, the outcome in the data set listed under Rattus norvegicus [6] and in the data set filed under Rattus norvegicus [8] was Active. Moreover, the EC50 in data set [7] was determined as 16 µM.
